Assay results as given in patent publication US20080249144A1, “Preventive or Therapeutic Agent for Chronic Inflammatory Lung Disease” (KAKEN PHARMACEUITICAL CO., LTD., priority 2004, published 2008).

Key:
[1] = system: PPE-induced pulmonary emphysema model; assay: PPE-induced pulmonary emphysema model in mice; assay type: in vivo
Method: Eight-week old C57BL strain mice were anaesthetized with isoflurane. PPE (25 μg) was administered once to the lung through a cannula inserted into the trachea through the pharyngolarynx to induce a pulmonary damage. To a non-PPE administration group (normal group), saline was administered instead. In a preventive administration experiment (hereinafter referred to as a “preventive experiment”) of KP-496, drug effect was evaluated on inflammatory cells in BALF 2 days after PPE administration and by histopathological examination of the lung after 10 days. In a therapeutic administration experiment of KP-496 (hereinafter referred to as a “therapeutic experiment”), the drug effect was evaluated by histo-pathological examination of the lung and weight of the organs 14 days after PPE administration.
The medicament administration period was set from the PPE administration date to the day before autopsy in the preventive experiment and set from a predetermined day (KP-496A group: PPE administration date, KP-496B group: 3 days after PPE administration date, KP-496C group: 7 days after PPE administration date) to the day before autopsy in the therapeutic experiment. Inhalation administration of KP-496 was performed in the same manner as in Example 2. Furthermore, the normal group and the control group were allowed to spontaneously inhale saline, instead. A medicament for use in comparison, prednisolone, was orally administered in a dose of 5 mg/kg twice a day. A group consisted of 10 animals.
The animals were anaesthetized with pentobarbital and killed by exsanguination. Immediately after that, BAL of the right and left lungs was performed with 2 ml of saline. In the same manner as in Example 2, the total number of cells and the number of cells according to the cell type in the BALE were determined.
The lung was excised out from the animal killed by exsanguination in the same manner as in the above, the weight of the lung was measured. The lung was fixed in 10 vol % neutral buffered formalin solution. A pathological tissue sample was prepared in accordance in a general way. The degree of the damage of the lung tissue observed was evaluated by scoring in the same manner as in Example 2. Furthermore, the average of alveolar-space area of the entire lung tissue sample was computationally measured with image-processing software.
The average value and standard deviation of each group were calculated. Comparison between the normal group and the control group was performed by the Levene's test for equal variance and then, the t-test was performed depending on the results. To compare the control group and test substance administration groups, equal variance was first confirmed by the Levene's test and then multiple comparisons were performed in accordance with the Dunnett's test. Note that evaluation parameters with unequal variance and the damage score of the lung tissue were analyzed by nonparametric Mann-Whitney test. The significance level employed was […].

[2] = system: vanadium pentoxide-induced bronchitis model; assay: Vanadium pentoxide-induced bronchitis model in mice; assay type: in vivo; details: 7 days after vanadium pentoxide; compared with control
Method: Seven-week old C57BL strain male mice were used. The mouse was anaesthetized with isoflurane. Vanadium pentoxide (20 μg) was administered once to the lung through a cannula inserted into the trachea through the pharyngolarynx to induce pathology. To a non-vanadium pentoxide administration group (normal group), saline was administered, instead. KP-496 was administered by inhalation twice a day in the period from the vanadium pentoxide administration date to the day before autopsy, in the same manner as in Example 2. Furthermore, the normal group and the control group were allowed to spontaneously inhale saline in the same manner. A medicament for use in comparison, prednisolone, was orally administered at a dose of 5 mg/kg twice a day in the period from the vanadium pentoxide administration date to the day before autopsy. Note that the normal group consisted of 6 animals and the other group consisted of 10 animals. Each of the mice was anaesthetized with pentobarbital 7 days after vanadium pentoxide administration and killed by bloodletting from the abdominal aorta. The lung was excised out and fixed in 10 vol % neutral buffered formalin solution. […] The obtained value was divided by the circumferential length of the bronchial lumen (obtained in mucosal basal membrane) and the quotient was expressed as a mucus producing region area per millimeter of the bronchus. […]

[3] = 2 days after PPE, compared to control group
[4] = preventive experiment, 10 days after PPE

weights of the organs (liver, spleen and thymus gland) ([1]; mouse, in vivo): No effect was observed
Structure (SMILES): CC(C)c1csc(COc2cccc(CN(CCCCNS(=O)(=O)c3ccc(Cl)cc3)S(=O)(=O)c3ccccc3C(=O)O)c2)n1 [KP-496, 2-{N-[4-(4-chlorobenzenesulfonylamino)butyl]-N-{3-[(4-isopropyl-2-thiazolyl)methoxy]benzyl}}sulfamoylbenzoic acid]
total number of cells in BALF ([1]; 2 days after PPE administration, preventive experiment): 3.1±0.8 ×10^5 cells
number of eosinophils in BALF [1, 3]: lower values than in the control group
number of macrophages in BALF [1, 3]: significantly decreased
number of neutrophils in BALF [1, 3]: significantly decreased
emphysema-like pathology of the lung (histopathology) [1, 4]: the pathologic lesion was localized and mild
increase in lung weight [1, 4]: significantly suppressed
damage score of the lung ([1]; preventive experiment, 10 days after PPE, compared with control group): significantly decreased
increase of the average of the alveolar-space area ([1]; preventive experiment, compared to control): significantly suppressed
lung weight ([1]; therapeutic experiment, 14 days after PPE, despite difference of the administration initiation date): lower values than the control group
damage score of the lung ([1]; therapeutic experiment, 14 days after PPE, each of the groups (start day 0, 3 or 7)): significantly decreased
lung weight, difference to control group ([1]; therapeutic experiment, administration started from PPE administration date): a significant difference was observed
increase of the average of the alveolar-space area ([1]; therapeutic experiment, each of the groups (start day 0, 3 or 7)): significantly suppressed
increase of PAS positive area (mucus producing region of intrapulmonary bronchial epithelium) [2]: significantly suppressed
